{"source": "patent US20080299123A1", "about": "“TREATMENT OF CHEMOTHERAPY- OR RADIOTHERAPY-RESISTANT TUMORS” (Deutsches Krebsforschungszentrum Stiftung des offentlichen …, priority 2006, published 2008)", "format_in_all_cases": "cell-based, human", "key": {"[1]": {"system": "L1CAM transfected PT45-P1 cells", "test": "Caspase-3/-7 assay in L1CAM transfected PT45-P1 cells", "conditions": "inhibitor 10 μmol/L, 20 μg/mL etoposide 24 hours", "description": "(§1) PT45-P1res cells (a,b) or PT45-P1 cells transfected with L1CAM or an empty control vector (mock) (c,d) were left untreated (w/o) or were either treated with Tapi-0, Tapi-1, GM6001 or L685,458 (each 10 μmol/L) for 24 hours. (a,c) Cellular lysates were subjected to western blotting using either the antibody clone UJ127 from Acris detecting only full-length L1CAM or the pcytL1 antibody detecting also the cytoplasmic part of L1CAM. HSP90 was detected as a control for equal protein load. (b,d) Thirty minutes after treatment with the respective inhibitor, cells were either left untreated or treated with 20 μg/mL etoposide for 24 hours. Then, cells were analysed for caspase-3/-7 activity expressed as n-fold induction of caspase-3/-7 activity of basal. Means±SD from three independent experiments are shown. * indicates p<0.05.\n(§2) As described elsewhere (Sebens Müerköster et al., 2006), apoptosis was determined by staining with annexinV/propidium iodide (Biocarta, Hamburg, Germany) and subsequent fluorescence flow cytometry (GalaxyArgon Plus; DAKO Cytomation, Hamburg, Germany) using the FLOMAX software, and by the detection of caspase-3/-7 activity using a homogeneous luminescent assay (Promega, Mannheim, Germany). All samples were measured in duplicates.\n(§3) For L1CAM transfection, PT45-P1 cells were seeded into 6 well plates (2×10^5 cells/well), were grown overnight, followed by transfection with 5 μL/well DIMRIE reagent (Invitrogen) and 0.6 μg/well of the following plasmids: pcDNA3.1 (mock) or pcDNA3.1-L1CAM (L1CAM). Upon transfection for 18 hours, 1 mL medium containing 20% FCS was added and cells were left untreated or were treated as indicated for further 24 hours. For knock down of L1CAM, PT45-P1res cells were seeded into 12 well plates (1×10^5 cells/well), were grown overnight followed by transfection with 12 μL/well RNAiFect reagent (Invitrogen) and 2 μg/well of either Stealth negative control siRNA (Invitrogen) or Stealth L1CAM siRNA (Invitrogen). After overnight transfection, cells were either left untreated or treated as indicated for further 24 hours."}, "[2]": {"system": "PT45-P1res cells", "test": "Caspase-3/-7 assay in PT45-P1res cells", "conditions": "inhibitor 10 μmol/L, 20 μg/mL etoposide 24 hours", "description": "(a) PT45-P1 res cells were transfected with control siRNA or with two L1CAM specific siRNAs. Western blotting for the detection of full-length L1CAM or of HSP90 as a control for equal protein load was performed (upper panel). In parallel, siRNA transfected PT45-P1res cells were treated with 20 μg/mL etoposide or not for 24 hours and caspase-3/-7 activity was determined. (b) siRNA transfected PT45-P1res cells were subjected to L1CAM immunostaining (L1-11A antibody) or staining with an isotype matched control antibody followed by flow cytometry. One representative histogram is shown. (c) siRNA transfected PT45-P1res cells were analysed by western blotting for the detection of full-length L1 CAM, αv-integrin or HSP90 (d) After overnight siRNA transfection, cells were either left untreated or were either treated with 20 μg/mL etoposide or with 5 μg/mL gemcitabine for 24 hours, followed by either AnnexinV/PI staining and flow cytometry (AnnexinV positive cells over basal) or by caspase-3/-7 assay (n-fold induced caspase-3/-7 activity of basal). (e) PT45-P1res cells were either left untreated (w/o) or were treated with 20 μg/mL etoposide in the absence (w/o) or presence of either 5 μg/mL anti L1CAM antibody (Clone L1-11A) or 5 μg/mL isotype matched control antibody. After 24 hours, cells were analysed by AnnexinV/PI staining or by caspase-3/-7 assay. Means±SD from three independent experiments are shown. * indicates p<0.05.\nas §2, §3"}, "[3]": {"system": "L1CAM", "test": "L1CAM cleavage by western blotting in L1CAM transfected PT45-P1 cells", "conditions": "inhibitor 10 μmol/L, 24 hours", "description": "as §1\nCells were seeded into 6 well and 12 well plates, respectively, and transfected or treated as indicated. Then, cells were washed once with PBS and lysed with 1 volume of 2×SDS sample buffer (128 mmol/L Tris-Base, 4.6% SDS, 10% glycerol). Samples were heated for 5 minutes at 95° C. and put on ice for 2 minutes. Protein concentrations were determined using the Dc Protein assay (BioRad). Ten μg of protein adjusted to an appropriate volume of SDS sample buffer containing 0.2 mg/mL bromphenolblue (Serva, Heidelberg, Germany) and 2.5% β-mercaptoethanol (Biomol, Hamburg, Germany) were submitted to electrophoresis on a 4-20% ProGel-Tris-glycin-gel (Anamed, Darmstadt, Germany) and immunoblotting was performed as described previously (Arlt et al, 2001). For detection of L1CAM, a monoclonal antibody (clone UJ127 from Acris Antibodies) was diluted at a concentration of 0.4 μg/mL in 5% nonfat milk powder and 0.05% Tween in TBS (blotto) and incubated overnight at 4° C. For detection of the cytoplasmic domain of L1CAM, the pcytL1 antibody (Mechtersheimer et al., 2001) was used at a concentration of 1 μg/mL in blotto and incubated overnight at 4° C. As control of equal protein load, a polyclonal rabbit antibody for HSP90 (Santa Cruz, Heidelberg, Germany) was diluted 1:2000 in blotto. The mouse anti CD51 antibody from Beckman Coulter GmbH (Krefeld, Germany) was used at a concentration of 1:500 in blotto for detection of human αv integrin. Incubation with the primary antibodies was performed overnight at 4° C. For detection of the primary antibodies, anti-mouse and anti-rabbit HRP-linked antibodies (Cell Signaling), respectively, were used at a dilution of 1:2000 in blotto-TBST at room temperature for 1 hour. After washing in TBST, blots were developed using the LumiGlo peroxidase detection kit (Cell Signaling)."}}, "data": [{"smiles": "CC(C)C[C@H](CC(=O)NO)C(=O)N[C@@H](Cc1ccc2ccccc2c1)C(=O)N[C@@H](C)C(N)=O", "note": "[TAPI-0]", "values": [{"measurement": "apoptosis inducing effect of etoposide (caspase-3/-7)", "setting": "[1]", "result": "nor affect the apoptosis inducing effect of etoposide"}, {"measurement": "apoptosis induction after etoposide treatment (caspase-3/-7)", "setting": "[2]", "result": "did not significantly affect apoptosis induction after etoposide treatment"}, {"measurement": "expression of full-length L1CAM and level of the 32 kD fragment", "setting": "[3]", "result": "did neither influence the expression of full-length L1CAM nor increased the level of the 32 kD fragment"}]}]}
